Test results from US10499642B2, “Isoxazoline-substituted benzamides and analogues as insecticides” (SYNGENTA PARTICIPATIONS AG, priority 2015, dated 2019).

Key:
Format in all cases: in vivo
[1] = test system: Myzus persicae; assay: Myzus persicae (green peach aphid) sunflower leaf disc test; conditions: foliar, 144 h
Protocol: Myzus persicae (Green Peach Aphid):
Sunflower leaf discs were placed on agar in a 24-well microtiter plate and sprayed with test solutions at an application rate of 200 ppm. After drying, the leaf discs were infested with an aphid population of mixed ages. After an incubation period of 6 days after treatment, samples were checked for mortality. The following compounds gave at least 80% mortality of Myzus persicae: […]

[2] = test system: Diabrotica Balteata; assay: Diabrotica balteata (corn root worm) maize sprout test; conditions: 96 h, read-out: effect in at least one of the two categories (mortality or growth inhibition)
Method in brief: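 Maize sprouts on agar were sprayed with aqueous test solutions made from 10′000 ppm DMSO stocks, dried, then infested with 6 to 10 L2 larvae per well. Mortality and growth inhibition versus untreated samples were assessed 4 days after infestation; application rate 200 ppm.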

[3] = test system: Thrips tabaci; assay: Thrips tabaci (onion thrips) sunflower leaf disc test; conditions: foliar, 144 h
Protocol: Thrips tabaci (Onion Thrips):
Sunflower leaf discs were placed on agar in 24-well microtiter plates and sprayed with aqueous test solutions prepared from 10′000 ppm DMSO stock solutions. After drying the leaf discs were infested with a thrips population of mixed ages. The samples were assessed for mortality 6 days after infestation.

[4] = test system: Tetranychus urticae; assay: Tetranychus urticae (two-spotted spider mite) bean leaf disc test; conditions: foliar, 192 h
Protocol: Tetranychus urticae (Two-Spotted Spider Mite):
Bean leaf discs on agar in 24-well microtiter plates were sprayed with aqueous test solutions prepared from 10′000 ppm DMSO stock solutions. After drying the leaf discs were infested with a mite population of mixed ages. The samples were assessed for mortality on mixed population (mobile stages) 8 days after infestation.

[5] = test system: Spodoptera littoralis; assay: Spodoptera littoralis (Egyptian cotton leaf worm) cotton leaf disc test; conditions: foliar, 72 h, read-out: control (at least one of mortality, anti-feedant effect, and growth inhibition)
Method in brief: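 Cotton leaf discs on agar were sprayed with aqueous dilutions of 10′000 ppm DMSO stocks, dried and infested with five L1 larvae. Mortality, anti-feedant effect and growth inhibition were scored against untreated samples 3 days after infestation. Control = any of these higher than untreated.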

[6] = test system: Plutella xylostella; assay: Plutella xylostella (diamond back moth) artificial diet test; conditions: 120 h, read-out: effect in at least one of the two categories (mortality or growth inhibition)
Method in brief: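 Artificial diet treated with aqueous compound solutions made from DMSO stocks, dried, then infested with L2 larvae (10 to 15 per well). Mortality and growth inhibition scored versus untreated controls 5 days after infestation. Application rate 200 ppm.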

Cc1cc(C2=NO[C@@](c3cc(Cl)cc(C(F)(F)F)c3)(C(F)(F)F)C2)ccc1C(=O)N(C=O)C1CC(Br)=NO1 (stereo partly drawn) [Compound A142, N-(3-bromo-4,5-dihydroisoxazol-5-yl)-4-[(5S)-5-[3-chloro-5-(trifluoromethyl)phenyl]-5-(trifluoromethyl)-4H-isoxazol-3-yl]-N-formyl-2-methyl-benzamide]
≥ 80%: mortality at 200 ppm [1] | percent effect (mortality or growth inhibition) at 200 ppm [2] | mortality at 200 ppm [3] | mortality at 200 ppm [4] | percent control (mortality, anti-feedant effect or growth inhibition) at 200 ppm [5] | percent effect (mortality or growth inhibition) at 200 ppm [6]

CCOC1=NO[C@H](NC(=O)c2ccc(C3=NO[C@@](c4cc(Cl)cc(Cl)c4)(C(F)(F)F)C3)cc2C)C1 (single isomer, unassigned) [Compound A158]
≥ 80%: mortality at 200 ppm [1] | percent effect (mortality or growth inhibition) at 200 ppm [2] | mortality at 200 ppm [3] | mortality at 200 ppm [4] | percent control (mortality, anti-feedant effect or growth inhibition) at 200 ppm [5] | percent effect (mortality or growth inhibition) at 200 ppm [6]

CC1=NOC(N(C=O)C(=O)c2ccc(C3=NO[C@@](c4cc(Cl)cc(Cl)c4)(C(F)(F)F)C3)cc2C)C1 (stereo partly drawn) [Compound A140]
≥ 80%: mortality at 200 ppm [1] | percent effect (mortality or growth inhibition) at 200 ppm [2] | mortality at 200 ppm [3] | mortality at 200 ppm [4] | percent control (mortality, anti-feedant effect or growth inhibition) at 200 ppm [5] | percent effect (mortality or growth inhibition) at 200 ppm [6]

C#CCCCOC1=NOC(NC(=O)c2ccc(C3=NO[C@@](c4cc(Cl)c(Cl)c(Cl)c4)(C(F)(F)F)C3)cc2C)C1 (stereo partly drawn) [Compound A113, 2-methyl-N-(3-pent-4-ynoxy-4,5-dihydroisoxazol-5-yl)-4-[(5S)-5-(3,4,5-trichlorophenyl)-5-(trifluoromethyl)-4H-isoxazol-3-yl]benzamide]
≥ 80%: mortality at 200 ppm [1] | percent effect (mortality or growth inhibition) at 200 ppm [2] | mortality at 200 ppm [3] | mortality at 200 ppm [4] | percent control (mortality, anti-feedant effect or growth inhibition) at 200 ppm [5] | percent effect (mortality or growth inhibition) at 200 ppm [6]

Cc1cc(C2=NO[C@@](c3cc(Cl)cc(Cl)c3)(C(F)(F)F)C2)ccc1C(=O)NC1CC(OCC(F)(F)F)=NO1 (stereo partly drawn) [Compound A130, 4-[(5S)-5-(3,5-dichlorophenyl)-5-(trifluoromethyl)-4H-isoxazol-3-yl]-2-methyl-N-[3-(2,2,2-trifluoroethoxy)-4,5-dihydroisoxazol-5-yl]benzamide]
≥ 80%: mortality at 200 ppm [1] | percent effect (mortality or growth inhibition) at 200 ppm [2] | mortality at 200 ppm [3] | mortality at 200 ppm [4] | percent control (mortality, anti-feedant effect or growth inhibition) at 200 ppm [5] | percent effect (mortality or growth inhibition) at 200 ppm [6]

COCCOC1=NOC(NC(=O)c2ccc(C3=NO[C@@](c4cc(Cl)c(F)c(Cl)c4)(C(F)(F)F)C3)cc2C)C1 (stereo partly drawn) [Compound A076]
≥ 80%: mortality at 200 ppm [1] | percent effect (mortality or growth inhibition) at 200 ppm [2] | mortality at 200 ppm [3] | mortality at 200 ppm [4] | percent control (mortality, anti-feedant effect or growth inhibition) at 200 ppm [5] | percent effect (mortality or growth inhibition) at 200 ppm [6]
